Source: patent US20080114047A1 (priority 2003, published 2008)
Values joined by “and” are separate entries in the source; they are usually repeats but may differ in a detail not shown here. Equal entries are not always repeated. Where two headings read alike, the source gives them in different places.

How the values were obtained:
[1] = tested on: Mycobacterium tuberculosis; test: Compounds tested against Mycobacterium tuberculosis (MIC90); type: cell-based
[2] = tested on: L. donovani axenic amastigotes; test: In vitro anti-leishmania activity (IC50 vs. L. donovani axenic amastigotes); type: cell-based; conditions: Leishmania donovani
[3] = tested on: Plasmodium falciparum; test: Anti-protozoan data: P. falcip. IC50; type: cell-based; conditions: read-out: P. falcip. IC50
[4] = tested on: Trypanosoma brucei rhodesiense; test: Anti-protozoan data: T.b.r. IC50; type: cell-based; conditions: read-out: T.b.r. IC50
[5] = in vitro
[6] = tested on: Trypanosoma cruzi; test: Anti-protozoan data: T. cruzi IC50; type: cell-based; conditions: read-out: T. cruzi IC50
[7] = tested on: Candida albicans; test: Anti-fungal data: Candida albicans; type: cell-based; conditions: for MIC: strain A39, read-out: Candida albicans (A39) MIC100
[8] = tested on: Aspergillus fumigatus; test: Anti-fungal data: Aspergillus fumigatus; type: cell-based; conditions: for MIC: strain DUMC 168.95, read-out: Aspergillus. Fumigatus (DUMC 168.95) MIC100
[9] = Tables VI(a), VI(c), read-out: Leishmania donovani IC50
[10] = axenic amastigotes, Tables I-V, read-out: IC50 vs. L. donovani
[11] = Table VII(b), read-out: M. tb MIC90

## Cl.Cl.N=C(N)c1ccc(OCCCOc2cccc(-c3cc4ccc(C(=N)N)cc4o3)c2)cc1 [Compound 56, 2-(3-(3-(4-Carbamimidoylphenoxy)propoxy)phenyl)benzofuran-6-carboxamidine dihydrochloride]
[1]; read-out: M. tb. MIC90
  MIC90: 1.02 µg/mL and 1.93 µM
[2]; [9]
  IC50: 11.2 ± 0.28 µM
[2]; [10]
  IC50: 11.2 ± 0.28 µM
[3]; Tables VI(a), VI(c)
  IC50: 0.084 µM
[4]; Tables VI(a), VI(c)
  IC50: 0.327 µM
[5]
  IC50: 19.8 µM
[6]; Tables VI(a), VI(c)
  IC50: 11.1 µM
other
  melting point: 196 to 200 °C

## CC(C)NC(=N)c1cccc(-c2cc3cc(C(=N)NC(C)C)ccc3o2)c1 [Compound 167, 2-(3-(N-isopropylcarbamimidoyl)phenyl)-N-isopropylbenzofuran-5-carboxamidine]
[1]; [11]
  MIC90: > 57.8 µg/mL and > 128 µM
[2]; [10]
  IC50: 13.4 ± 0.64 µM
[2]; read-out: L. Donovani IC50
  IC50: 13.4 ± 0.64 µM
[3]
  IC50: 0.331 µM
[4]
  IC50: 0.473 µM
[5]
  IC50: > 199 µM
[6]
  IC50: > 199 µM

## CC(C)NC(=N)c1ccc(OCCCCCCOc2ccc(-c3cc4cc(C(=N)NC(C)C)ccc4o3)cc2)cc1.Cl.Cl [Compound 54, 2-(4-(6-(4-(N-Isopropylcarbamimidoyl)phenoxy)hexyloxy)phenyl)-N-isopropylbenzofuran-5-carboxamidine dihydrochloride]
[7]; strain A39
  MIC80: > 100 µg/mL
[7]
  MIC: > 100 µg/mL
[1]; read-out: M. tb. MIC90
  MIC90: 65.8 µg/mL and 102 µM
[2]; [9]
  IC50: 5.4 ± 1.46 µM
[3]; Tables VI(a), VI(c)
  IC50: 0.0634 µM
[4]; Tables VI(a), VI(c)
  IC50: 0.211 µM
[5]
  IC50: 0.85 µM
[6]; Tables VI(a), VI(c)
  IC50: 1.21 µM
other
  melting point: 288 to 291 °C
[8]; strain DUMC 168.95
  MIC80: > 100 µg/mL
[8]
  MIC: > 100 µg/mL

## Cl.Cl.c1cc(C2=NCCN2)ccc1OCCCCCCOc1ccc(-c2cc3ccc(C4=NCCN4)cc3o2)cc1 [Compound 79, 2-(2-(4-(6-(4-(4,5-Dihydro-1H-imidazol-2-yl)phenoxy)hexyloxy)phenyl)benzofuran-6-yl)-4,5-dihydro-1H-imidazole dihydrochloride]
[1]; read-out: M. tb. MIC90
  MIC90: 2.14 µg/mL and 3.51 µM
[2]; [9]
  IC50: 15.3 ± 1.72 µM
[2]; [10]
  IC50: 15.3 ± 1.72 µM
[3]; Tables VI(a), VI(c)
  IC50: 0.0316 µM
[4]; Tables VI(a), VI(c)
  IC50: 0.224 µM
[5]
  IC50: 3.44 µM
[6]; Tables VI(a), VI(c)
  IC50: 2.15 µM
other
  melting point: 265 to 269 °C

## Cl.Cl.c1cc(C2=NCCN2)ccc1OCCCCCOc1ccc(-c2cc3cc(C4=NCCN4)ccc3o2)cc1 [Compound 52, 2-(2-(4-(5-(4-(4,5-Dihydro-1H-imidazol-2-yl)phenoxy)pentyloxy)phenyl)benzofuran-5-yl)-4,5-dihydro-1H-imidazole dihydrochloride]
[7]; strain A39
  MFC: 10 µg/mL
  MIC80: 10 µg/mL
[7]
  MIC: 10 µg/mL
[1]; read-out: M. tb. MIC90
  MIC90: 10.1 µg/mL and 16.9 µM
[2]; [9]
  IC50: 39.4 ± 7.35 µM
[3]; Tables VI(a), VI(c)
  IC50: 0.06 µM
[4]; Tables VI(a), VI(c)
  IC50: 0.338 µM
[5]
  IC50: 0.87 µM
[6]; Tables VI(a), VI(c)
  IC50: 2.27 µM
other
  melting point: 258 to 261 °C
[8]; strain DUMC 168.95
  MFC: > 100 µg/mL
  MIC80: 10 µg/mL
[8]
  MIC: 100 µg/mL

## CONC(=N)c1ccc2oc(CCCCCc3cc4cc(C(=N)NOC)ccc4o3)cc2c1 [Compound 193, 2-(5-(5-(N-Methoxycarbamimidoyl)benzofuran-2-yl)pentyl)-N-methoxybenzofuran-5-carboxamidine]
[1]; read-out: M. tb. MIC90
  MIC90: 4.25 µg/mL and 7.88 µM
[2]; [9]
  IC50: > 100 µM
[3]; Tables VI(a), VI(c)
  IC50: > 1.86 µM
[4]; Tables VI(a), VI(c)
  IC50: > 18.6 µM
[5]
  IC50: 35.6 µM
[6]; Tables VI(a), VI(c)
  IC50: 19.1 µM

## c1cc(C2=NCCN2)cc(-c2cc3cc(C4=NCCN4)ccc3o2)c1 [Compound 168, 2-(3-(5-(4,5-dihydro-1H-imidazol-2-yl)benzofuran-2-yl)phenyl)-4,5-dihydro-1H-imidazole]
[1]; [11]
  MIC90: 10.8 µg/mL and 25.7 µM
[2]; [10]
  IC50: 23.7 ± 0.17 µM
[2]; read-out: L. Donovani IC50
  IC50: 23.7 ± 0.17 µM
[3]
  IC50: 0.0758 µM
[4]
  IC50: 0.0776 µM
[5]
  IC50: 33.9 µM
[6]
  IC50: 39.6 µM

## N=C(N)c1cccc(-c2cc3cc(C(=N)N)ccc3o2)c1 [Compound 166, 2-(3-carbamimidoylphenyl)benzofuran-5-carboxamidine]
[1]; [11]
  MIC90: 11.9 µg/mL and 31.6 µM
[2]; [10]
  IC50: 5.82 ± 0.06 µM
[2]; read-out: L. Donovani IC50
  IC50: 5.82 ± 0.06 µM
[3]
  IC50: 0.0191 µM
[4]
  IC50: 0.0241 µM
[5]
  IC50: 21.2 µM
[6]
  IC50: 23.4 µM
